# Source: patent US10030027B2, “Soluble guanylate cyclase stimulators” (MERCK SHARP & DOHME CORP., priority 2015, dated 2018)
# How the values were obtained:
# [1] = target: human recombinant sGC enzyme (Homo sapiens (Human), UniProt Q02108+Q02153); assay: Size Exclusion Chromatography (SEC) competition binding assay using [3H] Ex-77B as the radioligand; conditions: [3H] Ex-77B radioligand, 24 hours at 37° C.
# Protocol: Binding Assay: The binding potencies of sGC compounds to the human recombinant sGC enzyme were determined in a Size Exclusion Chromatography (SEC) competition binding assay using [^3H] Ex-77B as the radioligand. [^3H] Ex-77B was prepared using a standardardized tritium exchange procedure. The parent (non-labeled) molecule was first iodinated then a Pd-catalyzed iodine to tritium exchange provided the labeled compound. […] Assays were conducted in 96-well plates in a total volume of 200 μL. […] Non-specific binding was defined by competition with 1 μM of Ex-77B. After the incubation period, the binding mixtures were loaded onto the gel-filtration plate (ThermoFischer Cat. No. 89808) pre-equilibrated with binding buffer and spun at 1000×g for 3 min at 4° C. on a Bench top centrifuge. The collected eluates in White Frame Clear Well Isoplates (Perkin Elmer Cat #6005040) received 100 μl of UltimaGold scintillation cocktail. The sealed plates were shaken vigorously and span, and counted after 6 hours with a Wallac Microbeta TriLux 1450 LSC & Luminescence Counter (Perkin Elmer). Data from competition experiments were analyzed to determine Ki values using one site fit Ki equation.
# sGC α1/β1 heterodimer = sGC α1/β1 heterodimer (Homo sapiens (Human), UniProt Q02108+Q02153); assay: Cell-based sGC functional assay (cyclic GMP assay for sGC activator: CASA assay); design: % Activation: concentration or dose not given beside the values; conditions: CHO-K1/sGC cells; for Emax: CHO-K1, activity expressed as percentage of compound A (standard), read-out: % Activation; for EC50: inflection point, 4P fit, read-out: IP
# Excerpt: Cell-Based sGC Functional Assay (Cyclic GMP Assay for sGC Activator: CASA Assay)
# Soluble guanylate cyclase (sGC) is a heme-containing enzyme that converts GTP to secondary messenger cGMP. Increases in cGMP levels affect several physiological processes including vasorelaxation through multiple downstream pathways. […] Heme-dependent activators (HDAs) preferentially activate sGC containing a ferrous heme group. To determine the effect of sGC activators on enzyme activity, the CASA assay was developed to monitor the generation of cGMP in a cell line that stably expresses the heterodimeric sGC protein.
# A CHO-K1 cell line stably expressing the sGC α1/β1 heterodimer was generated using a standard transfection protocol. CHO-K1 cells were transfected with plasmids pIREShyghsGCα1 and pIRESneo-hsGCβ1 simultaneously using FUGENE reagent. Clones that stably express both subunits were selected with hygromycin and neomycin for ˜2 weeks. Clone #7 was chosen for the assay and was designated CHO-K1/sGC. CHO-K1/sGC cells were maintained in F-K12 medium containing 10% heat-inactivated Fetal Bovine Serum (FBS), 100 μg/mL penicillin/streptomycin, 0.5 mg/mL hygromycin and 0.25 mg/mL G418. The cells were then cryopreserved in LN2. On the day of the assay, the cells were thawed and resuspended in EBSS Assay Buffer (Sigma, E3024) supplemented with 5 mM MgCl2, 10 mM HEPES (4-(2-hydroxyethyl)piperazine-1-ethanesulfonic acid) and 0.05% BSA (bovine serum albumin) (EAB) and cell density was then adjusted to 2.25×10^5/mL with EAB. IBMX (3-isobutyl-1-methylxanthin, 0.5 mM) was added to inhibit degradation of cGMP. Compounds were diluted from DMSO stock solutions and added to the assay at a final DMSO concentration of 2.5%. Cells were pre-incubated in the presence and absence of 1 μM of Diethylenetriamine/nitric oxide adduct (DETA-NO; Sigma, 17018) for 30 min at 25° C. Compounds are subsequently added and incubated for 1 hr at 37° C. At the end of the incubation period, the reaction was terminated and the cells were lysed with the detection reagents from Cisbio Kits. The level of intracellular cGMP was determined using an HTRF-based assay kit (CisBio, 62GM2PEC), which detects the displacement of a fluorescence labeled cGMP from its specific antibody. The cGMP produced by test compounds was directly compared to the maximum cGMP production (this value was set to equal 100% activation.) of the published sGC-HDA compound A:
# (Example 1 in WO 2010/065275, published Jun. 10, 2010). The test compounds' activity were then expressed as a percentage of compound A, the standard in every experiment. This percent activation was calculated either in the presence or absence of DETA-NO which was then plotted. Inflection points (IP) and maximum fold induction was derived using Abase analysis software for 4P fit.
Ki [1],Emax (sGC α1/β1 heterodimer),EC50 (sGC α1/β1 heterodimer),% Activation (sGC α1/β1 heterodimer; activity expressed as percentage of compound A (standard)),SMILES
0.461 nM,,,,"CC(C)(Cc1coc(C2(C)C(=O)Nc3nc(-c4nn(CC5CCCCO5)c5cc(F)ccc45)nc(N)c32)n1)C(=O)O (single isomer, unassigned) [Example 134AB, 3-{2-[4-amino-2-{6-fluoro-1-[tetrahydro-2H-pyran-2-ylmethyl]-1H-indazol-3-yl}-5-methyl-6-oxo-6,7-dihydro-5H-pyrrolo[2,3-d]pyrimidin-5-yl]-1,3-oxazol-4-yl}-2,2-dimethylpropanoic acid]"
0.28 nM,,,,"CC(C)(Cc1coc(C2(C)C(=O)Nc3nc(-c4nn(CC5CCCCO5)c5ccccc45)nc(N)c32)n1)C(=O)O (single isomer, unassigned) [Example 230AB, 3-{2-[4-amino-5-methyl-6-oxo-2-{1-[tetrahydro-2H-pyran-2-ylmethyl]-1H-indazol-3-yl}-6,7-dihydro-5H-pyrrolo[2,3-d]pyrimidin-5-yl]-1,3-oxazol-4-yl}-2,2-dimethyl-propanoic acid]"
0.182 nM,,,,"CC1(c2cccc(-c3nn[nH]n3)c2)C(=O)Nc2nc(-c3nn(CCC(F)(F)C(F)(F)F)c4cc(Cl)ccc34)nc(N)c21 (single isomer, unassigned) [Example 251B, 4-amino-2-[6-chloro-1-(3,3,4,4,4-penta-fluorobutyl)-1H-indazol-3-yl]-5-methyl-5-[3-(1H-tetrazol-5-yl)phenyl]-5,7-dihydro-6H-pyrrolo[2,3-d] pyrimidin-6-one]"
0.42 nM,,,,"CC1(c2ccc(C(=O)O)cc2)C(=O)Nc2nc(-c3nn(CCC(F)(F)C(F)(F)F)c4cc(Cl)ccc34)nc(N)c21 (stereo not drawn) [Example 155B, 4-{4-amino-2-[6-chloro-1-(3,3,4,4,4-pentafluorobutyl)-1H-indazol-3-yl]-5-methyl-6-oxo-6,7-dihydro-5H-pyrrolo[2,3-d]pyrimidin-5-yl} benzoic acid]"
,106%,210 nM,,"CC1(c2cccc(CCC(=O)O)c2)C(=O)Nc2nc(-c3nn(Cc4ccccc4F)c4ncc(F)cc34)nc(N)c21 (stereo not drawn) [Example 24A, 3-(3-{4-amino-2-[5-fluoro-1-(2-fluorobenzyl)-1H-pyrazolo[3,4-b]pyridin-3-yl]-5-methyl-6-oxo-6,7-dihydro-5H-pyrrolo[2,3-d]pyrimidin-5-yl}phenyl)propanoic acid]"
,87%,85 nM,,"C[C@@]1(c2ccc(CCC(=O)O)cc2)C(=O)Nc2nc(-c3nn(Cc4ccccc4F)c4ccc(Cl)cc34)nc(N)c21 [Example 73B, (S)-3-(4-{4-amino-2-[5-chloro-1-(2-fluorobenzyl)-1H-indazol-3-yl]-5-methyl-6-oxo-6,7-dihydro-5H-pyrrolo[2,3-d]pyrimidin-5-yl}phenyl)propanoic acid]"
,78%,73 nM,,"C[C@@]1(c2ccc(CCC(=O)O)cc2)C(=O)Nc2nc(-c3nn(Cc4ccccc4F)c4ccc(F)cc34)nc(N)c21 [Example 71B, (S)-3-(4-{4-amino-2-[5-fluoro-1-(2-fluorobenzyl)-1H-indazol-3-yl]-5-methyl-6-oxo-6,7-dihydro-5H-pyrrolo[2,3-d]pyrimidin-5-yl}phenyl)propanoic acid]"
,98%,407 nM,,"CC1(c2nc(CCC(=O)O)co2)C(=O)Nc2nc(-c3nn(Cc4ccccc4F)c4cc(Cl)ccc34)nc(N)c21 (stereo not drawn) [Example 50A, 3-(2-{4-amino-2-(6-chloro-1-(2-fluorobenzyl)-1H-indazol-3-yl)-5-methyl-6-oxo-6,7-dihydro-5H-pyrrolo[2,3-d]pyrimidin-5-yl}oxazol-4-yl)propanoic acid]"
0.783 nM,,,,"CC1CCC(Cn2nc(-c3nc(N)c4c(n3)NC(=O)[C@@]4(C)c3nc(CC(C)(C)C(=O)O)cs3)c3cccnc32)CC1 (single isomer, unassigned) [Example 125AA]"
,,186 nM,,"CC1(c2nn(C(C)(C)C(=O)O)c(=O)o2)C(=O)Nc2nc(-c3nn(CCC(F)(F)C(F)(F)F)c4cc(Cl)ccc34)nc(N)c21 (single isomer, unassigned) [Example 99B, 2-[5-{4-Amino-2-[6-chloro-1-(3,3,4,4,4-pentafluorobutyl)-1H-indazol-3-yl]-5-methyl-6-oxo-6,7-dihydro-5H-pyrrolo[2,3-d]pyrimidin-5-yl}-2-oxo-1,3,4-oxadiazol-3(2H)-yl]-2-methylpropanoic acid]"
,106%,1370 nM,,"CC[C@@H](NC(=O)CCc1ccc([C@]2(C)C(=O)Nc3nc(-c4nn(Cc5ccccc5F)c5ncccc45)nc(N)c32)cc1)C(=O)O [Example 104B, (5S,2R)-2-(3-(4-{4-amino-2-[1-(2-fluorobenzyl)-1H-pyrazolo[3,4-b]pyridin-3-yl]-5-methyl-6-oxo-6,7-dihydro-5H-pyrrolo[2,3-d]pyrimidin-5-yl}phenyl)propanamido)butanoic acid]"
0.183 nM,,,,"CC1(c2cc(C(=O)O)ccn2)C(=O)Nc2nc(-c3nn(Cc4ccccc4F)c4cc(Cl)ccc34)nc(N)c21 (stereo not drawn) [Example 219A, 2-{4-amino-2-[6-chloro-1-(2-fluorobenzyl)-1H-indazol-3-yl]-5-methyl-6-oxo-6,7-dihydro-5H-pyrrolo[2,3-d]pyrimidin-5-yl} pyridine-4-carboxylic acid]"
0.333 nM,,,,"C[C@@]1(c2ccc(CCc3nn[nH]n3)cc2)C(=O)Nc2nc(-c3nn(Cc4ncccc4F)c4ccccc34)nc(N)c21 [Example 245B, (S)-5-{4-[2-(2H-tetrazol-5-yl)ethyl]phenyl}-4-amino-2-{1-[(3-fluoro-pyridin-2-yl)methyl]-1H-indazol-3-yl}-5-methyl-5,7-dihydro-6H-pyrrolo[2,3-d] pyrimidin-6-one]"
,108%,178 nM,,"Cc1sc(C2(C)C(=O)Nc3nc(-c4nn(CCC(F)(F)C(F)(F)F)c5cc(Cl)ccc45)nc(N)c32)nc1-c1ccc(C(=O)O)cc1 (stereo not drawn) [Example 94B, 4-(2-{4-amino-2-[6-chloro-1-(3,3,4,4,4-pentafluorobutyl)-1H-indazol-3-yl]-5-methyl-6-oxo-6,7-dihydro-5H-pyrrolo[2,3-d]pyrimidin-5-yl}-5-methyl-1,3-thiazol-4-yl)benzoic acid]"
,69%,302 nM,,"CC1(c2ccc(CC(=O)O)cc2)C(=O)Nc2nc(-c3nn(Cc4ccccc4F)c4cc(Cl)ccc34)nc(N)c21 (stereo not drawn) [Example 117A, 2-(4-{4-amino-2-[6-chloro-1-(2-fluorobenzyl)-1H-indazol-3-yl]-5-methyl-6-oxo-6,7-dihydro-5H-pyrrolo[2,3-d]pyrimidin-5-yl}phenyl)acetic acid]"
,,,98.4%,"CC1CCC(Cn2nc(-c3nc(N)c4c(n3)NC(=O)C4(C)c3nc(CC(C)(C)C(=O)O)co3)c3ccc(F)cc32)CC1 (racemic) [Example 137AB, 3-{2-[4-amino-2-{6-fluoro-1-[4-methylcyclohexylmethyl]-1H-indazol-3-yl}-5-methyl-6-oxo-6,7-dihydro-5H-pyrrolo[2,3-d]pyrimidin-5-yl]-1,3-oxazol-4-yl}-2,2-dimethylpropanoic acid]"
,135%,,,"Cc1cccc(Cn2nc(-c3nc(N)c4c(n3)NC(=O)C4(C)c3nc(CC(C)(C)C(=O)O)co3)c3ccc(F)cc32)c1F (stereo not drawn) [Example 212A, 3-(2-{4-amino-2-[6-fluoro-1-(2-fluoro-3-methyl-benzyl)-1H-indazol-3-yl]-5-methyl-6-oxo-6,7-dihydro-5H-pyrrolo[2,3-d]pyrimidin-5-yl}-1,3-oxazol-4-yl)-2,2-dimethyl-propanoic acid]"
